MIC data for 47 compounds are collected here from US9023843B2, “Antimicrobial compounds and methods of making and using the same” (Melinta Therapeutics, Inc., priority 2009, dated 2015).

The subject of this experiment is Eschericia coli strain ATCC25922. As to the kind of experiment: standard microdilution assay to determine minimum inhibitory concentrations (MICs). The following applies: Escherichia coli, read-out: E. coli ATCC25922 MIC. Format: cell-based. The method, then: Minimum inhibitory concentrations (MICs) are determined by the microdilution method, typically in a final volume of 100 microliters, according to protocols outlined by The Clinical and Laboratory Standards Institute [CLSI; formerly the National Committee for Clinical Laboratory Standards (NCCLS)]. See CLSI: Methods for dilution antimicrobial susceptibility tests for bacteria that grow aerobically; approved standard-fifth edition. Wayne, Pa.: NCCLS; 2000. The assays can be also be performed in microtiter trays according to conventional methodologies as published by the CLSI. See CLSI. Methods for Dilution Antimicrobial Susceptibility Tests for Bacteria That Grow Aerobically; Approved Standard-Seventh Edition. CLSI Document M7-A7 [ISBN 1-56238-587-9] CLSI, 940 West Valley Road, Suite 1400, Wayne Pa. 19087-1898 USA, 2006).
The compounds of the present invention were tested for antimicrobial activity. The compounds were run against Eschericia coli strain ATCC25922 using a standard microdilution assay to determine minimum inhibitory concentrations (MICs). […] A “N/A” means that data is unavailable. It will be recognized by one skilled in the art that the compounds can be assessed against other bacterial organisms and that the presentation of data for activity against Eschericia coli is illustrative and in no way is intended to limit the scope of the present invention. The compounds of the present invention can be assayed against a range of other microorganisms depending upon the performance activity desired to be gathered. Furthermore, the “+”, “−”, and “N/A” representation and the selection of a cutoff value of 16 micrograms/ml is also illustrative and in no way is intended to limit the scope of the present invention.
Background: Broth dilution looks for growth in wells or tubes with falling amounts of substance.

Bounds are passed on as bounds.

For the compound `N=C(N)NCCCNC1CCC(n2cc3c(nc2=O)Nc2cc(C4CCN(C(=O)CNC(=N)N)CC4)ccc2O3)CC1` (centres unmarked) [Compound 752], the MIC (usually the smallest concentration in the dilution series that meets the test's criterion for growth inhibition) is less than 16 µg/mL. As for `N=C(N)NCCCNC1CCC(n2cc3c(nc2=O)Nc2cc(C4CCN(C(=O)CN(Cc5ccc(F)c(F)c5)C5CCNCC5)CC4)ccc2O3)CC1` (centres unmarked) [Compound 753], the figure is less than 16 µg/mL; as for `NCCCNC1CCC(n2cc3c(nc2=O)Nc2cc(C4CCN(C(=O)CN(Cc5ccc(F)c(F)c5)C5CCNCC5)CC4)ccc2O3)CC1` (centres unmarked) [Compound 754], less than 16 µg/mL.

`N=C(N)NCCCNC1CCC(n2cc3c(nc2=O)Nc2cc(C(=O)NCCc4c[nH]cn4)ccc2O3)CC1` (centres unmarked) [Compound 763]: the minimal inhibitory concentration (MIC) was more than 16 µg/mL. The figure for `N=C(N)NCCCNC1CCC(n2cc3c(nc2=O)Nc2cc(C4CCN(C(=O)Nc5ccc(F)cc5)CC4)ccc2O3)CC1` (centres unmarked) [Compound 765] is less than 16 µg/mL; for `CN1CCN(CCCNC(=O)c2ccc3c(c2)Nc2nc(=O)n(C4CCC(NCCCNC(=N)N)CC4)cc2O3)CC1` (centres unmarked) [Compound 774] it is less than 16 µg/mL. The figure for `N=C(N)NCCCNC1CCC(n2cc3c(nc2=O)Nc2cc(C4CCN(C(=O)C5(N)CC5)CC4)ccc2O3)CC1` (centres unmarked) [Compound 776] is less than 16 µg/mL. The figure for `N=C(N)NCCCN1CCCC(n2cc3c(nc2=O)Nc2cc(C4CCN(C(=O)C5(N)CCCC5)CC4)ccc2O3)CC1` (centres unmarked) [Compound 777] is less than 16 µg/mL.

As to `N=C(N)NCCCNC1CCC(n2cc3c(nc2=O)Nc2cc(C(=O)NCCCN4CCOCC4)ccc2O3)CC1` (centres unmarked) [Compound 781], the MIC was less than 16 µg/mL. As for `N=C(N)NCCCN1CCC(n2cc3c(nc2=O)Nc2cc(C4CCN(C(=O)Nc5cc(F)c(F)cc5F)CC4)ccc2O3)CC1` [Compound 782], the figure is more than 16 µg/mL. Consider `N=C(N)NCCCNC1CCC(n2cc3c(nc2=O)Nc2cc(C4CCN(C(=O)C5(N)CCCC5)CC4)ccc2O3)CC1` (centres unmarked) [Compound 783], for which the minimum inhibitory concentration (MIC) was less than 16 µg/mL. The figure for `N=C(N)NCCCN1CCCC(n2cc3c(nc2=O)Nc2cc(C4CCN(C(=O)CN)CC4)ccc2O3)CC1` (centres unmarked) [Compound 793] is less than 16 µg/mL. As for `NCCCN1CCCC(n2cc3c(nc2=O)Nc2cc(C4CCN(C(=O)CCN)CC4)ccc2O3)CC1` (centres unmarked) [Compound 795], the figure is more than 16 µg/mL; as for `NCCCN1CCC(n2cc3c(nc2=O)Nc2cc(C(=O)NCCN4CCC[C@H](N)C4)ccc2O3)CC1` [Compound 798], more than 16 µg/mL; as for `N=C(N)NCC(=O)N1CCC(c2ccc3c(c2)Nc2nc(=O)n(C4CCCN(CCCN)CC4)cc2O3)CC1` (centres unmarked) [Compound 832], less than 16 µg/mL.

For the compound `N=C(N)NCCCN1CCCC(n2cc3c(nc2=O)Nc2cc(C4CCN(C(N)=O)CC4)ccc2O3)CC1` (centres unmarked) [Compound 833], the MIC was less than 16 µg/mL. The figure for `O=C(NCCCN1CCNCC1)c1ccc2c(c1)Nc1nc(=O)n(CCO)cc1O2` [Compound 858] is more than 16 µg/mL; for `NCCCN1CCCC(n2cc3c(nc2=O)Nc2cc(C(=O)N4CCC[C@H](N)C4)ccc2O3)CC1` (some centres unmarked) [Compound 870] it is more than 16 µg/mL. As for `NCCCN1CCCC(n2cc3c(nc2=O)Nc2cc(C(=O)N4CCC[C@@H](N)C4)ccc2O3)CC1` (some centres unmarked) [Compound 888], the figure is more than 16 µg/mL; as for `O=C(NCCCN1CCNCC1)c1ccc2c(c1)Nc1nc(=O)n(C3CCCNCC3)cc1O2` (centres unmarked) [Compound 890], more than 16 µg/mL; as for `NC1CCCN(C(=O)c2ccc3c(c2)Nc2nc(=O)n(C4CCCNCC4)cc2O3)C1` (centres unmarked) [Compound 891], more than 16 µg/mL. The figure for `NC1CCC(n2cc3c(nc2=O)Nc2cc(CC(=O)NCCCN4CCNCC4)ccc2O3)CC1` (centres unmarked) [Compound 903] is more than 16 µg/mL. Take `N[C@@H]1CCCN(C(=O)c2ccc3c(c2)Nc2nc(=O)n(C4CCCNCC4)cc2O3)C1` (some centres unmarked) [Compound 908]: the minimum inhibitory concentration (MIC) was more than 16 µg/mL. The figure for `CCn1cc2c(nc1=O)Nc1cc(CNCCCN3CCNCC3)ccc1O2` [Compound 919] is more than 16 µg/mL; for `O=c1nc2c(cn1C1CCCNCC1)Oc1ccc(CNCCCN3CCNCC3)cc1N2` (centres unmarked) [Compound 920] it is more than 16 µg/mL. As for `N[C@H]1CCCN(CCNCc2ccc3c(c2)Nc2nc(=O)n(C4CCCNCC4)cc2O3)C1` (some centres unmarked) [Compound 921], the MIC is more than 16 µg/mL. As for `NCCCN1CCC(n2cc3c(nc2=O)N[C@@H]2CCCC[C@H]2O3)CC1` [Compound 929], the figure is more than 16 µg/mL. As for `N=C(N)NCCCNC1CCC(n2cc3c(nc2=O)Nc2cc(C4=CCNCC4)ccc2O3)CC1` (centres unmarked) [Compound 938], the figure is less than 16 µg/mL; as for `N=C(N)NCCCN1CCCC(n2cc3c(nc2=O)Nc2cc(C(=O)N4CCC[C@H](N)C4)ccc2O3)CC1` (some centres unmarked) [Compound 950], less than 16 µg/mL; as for `N=C(N)NCCCN[C@H]1CC[C@H](n2cc3c(nc2=O)Nc2cc(CCN4CCOCC4)ccc2O3)CC1` [Compound 956], less than 16 µg/mL. As for `NC1CCC(n2cc3c(nc2=O)Nc2cc(C4CCNCC4)ccc2O3)CC1` (centres unmarked) [Compound 972], the figure is more than 16 µg/mL; as for `N=C(N)NCCCNC1CCC(n2cc3c(nc2=O)Nc2cc(C4CCNCC4)ccc2O3)CC1` (centres unmarked) [Compound 993], less than 16 µg/mL; as for `N=C(N)NCCC(=O)NC1CCC(n2cc3c(nc2=O)Nc2cc(C4CCNCC4)ccc2O3)CC1` (centres unmarked) [Compound 1032], less than 16 µg/mL. `COCCN(C(=O)CN1CCC(c2ccc3c(c2)Nc2nc(=O)n(C4CCC(N)CC4)cc2O3)CC1)C1CCNCC1` (centres unmarked) [Compound 1041]: the MIC is more than 16 µg/mL.

`NC1CCC(n2cc3c(nc2=O)Nc2cc(C4CCN(CC(=O)N(CC5CC5(F)F)C5CCNCC5)CC4)ccc2O3)CC1` (centres unmarked) [Compound 1042]: the MIC is more than 16 µg/mL. The figure for `NCCC(=O)NC1CCC(n2cc3c(nc2=O)Nc2cc(C4CCNCC4)ccc2O3)CC1` (centres unmarked) [Compound 1086] is less than 16 µg/mL; for `NC1CCC(n2cc3c(nc2=O)Nc2cc(C4CCN(CC(=O)N(Cc5ccc6[nH]cnc6c5)C5CCNCC5)CC4)ccc2O3)CC1` (centres unmarked) [Compound 1096] it is more than 16 µg/mL; for `N=C(N)NCCS(=O)(=O)NC1CCC(n2cc3c(nc2=O)Nc2cc(C4CCNCC4)ccc2O3)CC1` (centres unmarked) [Compound 1133] it is less than 16 µg/mL. With `N=C(N)NCCCN(C(=O)CCN)C1CCC(n2cc3c(nc2=O)Nc2cc(C4CCNCC4)ccc2O3)CC1` (centres unmarked) [Compound 1134], the MIC was less than 16 µg/mL. As to `N=C(N)NCCCN(C(=O)CCNC(=N)N)C1CCC(n2cc3c(nc2=O)Nc2cc(C4CCNCC4)ccc2O3)CC1` (centres unmarked) [Compound 1135], the minimal inhibitory concentration (MIC) was less than 16 µg/mL.

Take `N=C(N)NCCC(=O)N(CCCN)C1CCC(n2cc3c(nc2=O)Nc2cc(C4CCNCC4)ccc2O3)CC1` (centres unmarked) [Compound 1145]: the minimum inhibitory concentration (MIC) is less than 16 µg/mL. As for `NCCCN(C(=O)CCN)C1CCC(n2cc3c(nc2=O)Nc2cc(C4CCNCC4)ccc2O3)CC1` (centres unmarked) [Compound 1146], the figure is less than 16 µg/mL; as for `NCCS(=O)(=O)NC1CCC(n2cc3c(nc2=O)Nc2cc(C4CCNCC4)ccc2O3)CC1` (centres unmarked) [Compound 1147], more than 16 µg/mL. Take `O=C(CCN1CCNCC1)NC1CCC(n2cc3c(nc2=O)Nc2cc(C4CCNCC4)ccc2O3)CC1` (centres unmarked) [Compound 1192]: the minimal inhibitory concentration (MIC) was more than 16 µg/mL. As for `O=c1nc2c(cn1C1CCC(NCCCN3CCNCC3)CC1)Oc1ccc(C3CCNCC3)cc1N2` (centres unmarked) [Compound 1193], the minimum inhibitory concentration (MIC) was more than 16 µg/mL. In the case of `Cc1ccc(CCCNC2CCC(n3cc4c(nc3=O)Nc3cc(C5CCNCC5)ccc3O4)CC2)o1` (centres unmarked) [Compound 1197], the MIC is more than 16 µg/mL.

Consider `Cc1ccc(CCCN(CCCc2ccc(C)o2)C2CCC(n3cc4c(nc3=O)Nc3cc(C5CCNCC5)ccc3O4)CC2)o1` (centres unmarked) [Compound 1198], for which the MIC was more than 16 µg/mL.
